Measured values reported in patent US7291627B2, “Dihydroimidazo[5.1-a]-beta-carboline derivatives, method for their preparation, and their application as a drug” (MACEF, priority 2001, dated 2007).

Tested on: JA 657 chicks
Test: Chick sleep/sedation test (IM injection, 90 minute observation)
Assay type: in vivo
Details: for Sed (sedation time as % of the period) / TA (time to torpor between injection and first stage of sleep) / TS (duration of the first sleep) / Tsed (total sedation time over the period): 90 min observation; for TS (mins) Placebo diff'ce: extension of first sleep compared with test controls
Protocol: The dihydroimidazo[5,1-a]-β-carboline derivatives of the invention, in particular those in the form of the methyl sulfonate, (soluble), were tested in chicks, and certain compounds that were active in the chick were administered in single doses to six Beagle dogs of both sexes for a polysomnographic study of at least 4 hours duration.
JA 657 chicks from Couvoir Gauguet, 44 Le Pin, were accustomed for at least 6 days to an alternating program of light and darkness with 12 hours of daylight and 12 hours of darkness at a regulated temperature of 25±2° C. They were fed ad libitum and were placed under test compounds in a vivarium in groups of 3 individuals with a mean weight of 100±10 g on the day of the test. At that age in this species, there is no effective meningeal (hemato-encephalic) barrier. The test products were injected in 3 doses (1, 3 and 10 mg/kg) intramuscularly (IM) in solution or in an aqueous suspension (1 drop of Tween 80 per ml), each to two batches of 3 chicks which were observed over 90 minutes. For each test series (18 vivaria), there was at least one batch of negative control chicks receiving the same volume (0.2 ml IM) of water for injectable preparations.
During the 90 minute observation period, the chicks were strongly stimulated every 15 minutes by presenting a full feeding trough, and each 5 minute period was given a grade from among the following 5 states, corresponding to the state of alertness over that period:
Mobile, sitting alert, drowsy, asleep, sleep-like state. The parameters studied were the time to torpor (TA) passed between injection and the first stage of sleep, the duration of the first sleep (TS) and the total sedation time over the period (Tsed), expressed in minutes and as a % of the period (Sed).
To compare the results of tests carried out at different dates, the extension of the duration of the first sleep TS compared with the test controls was recorded.

| SMILES | Sed (sedation time as % of the period) (Dose: 1 mg/kg) [%] | TA (time to torpor between injection and first stage of sleep) (Dose: 1 mg/kg) [min] | TS (duration of the first sleep) (Dose: 1 mg/kg) [min] | Tsed (total sedation time over the period) (Dose: 1 mg/kg) [min] | TS (mins) Placebo diff'ce (Dose: 1 mg/kg) [min] | Sed (sedation time as % of the period) (Dose: 3 mg/kg) [%] | TA (time to torpor between injection and first stage of sleep) (Dose: 3 mg/kg) [min] | TS (duration of the first sleep) (Dose: 3 mg/kg) [min] | Tsed (total sedation time over the period) (Dose: 3 mg/kg) [min] | TS (mins) Placebo diff'ce (Dose: 3 mg/kg) [min] | Sed (sedation time as % of the period) (Dose: 10 mg/kg) [%] | TA (time to torpor between injection and first stage of sleep) (Dose: 10 mg/kg) [min] | TS (duration of the first sleep) (Dose: 10 mg/kg) [min] | Tsed (total sedation time over the period) (Dose: 10 mg/kg) [min] | TS (mins) Placebo diff'ce (Dose: 10 mg/kg) [min] |
| --- | --- | --- | --- | --- | --- | --- | --- | --- | --- | --- | --- | --- | --- | --- | --- |
| COc1ccc2[nH]c3c(c2c1)CCn1c(C)nc(-c2ccccc2)c1-3 [Example 4, 8-methoxy-3-methyl-1-phenyl-5,6-dihydro-imidazo[5,1-a]-β-carboline] | 58.9 | 16.5 | 38 | 53.01 | 34 | 72.8 | 14 | 22.5 | 65.5 | 18.5 | 90.6 | 8.5 | 81.5 | 81.5 | 76.5 |
| CCc1nc(C)n2c1-c1[nH]c3ccc(OC)cc3c1CC2 [Example 5, 1-ethyl-8-methoxy-3-methyl-5,6-dihydro-imidazo[5,1-a]-β-carboline] | 58.3 | 20.5 | 33 | 52.47 | 29 | 76.7 | 14.5 | 53 | 69.0 | 49 | 62.8 | 13.5 | 40.5 | 56.5 | 36.5 |
